Assays:
[1] = biological target: T1, EV-amyloid (Homo sapiens, UniProt P05067, A673V/D672E); assay: Antibody binding to EV-amyloid, ALPHA sandwich assay; conditions: 37° C., 1 hour; G2-10 and anti-NH2-EVEFR antibodies
T1 construct: An Aβ variant peptide similar to Aβ 1-40
Description: Compounds interacting with secretase or antibody binding to the Aβ domain of APP (or an APP variant) nay also be expected to interact with Aβ or related amyloidogenic peptides. An Aβ variant peptide similar to Aβ 1-40, but with Glu and Val replacing the N-terminal two amino acids (hereafter referred to as “EV-amyloid”), as described in WO 02/094985 and US 2003/0200555 A1, was used to assess interactions between benzofurans and amyloid peptide. As with full length APP variant in Example 5, masking of antibody binding sites was used to assay the potential interactions.
The assay was carried out as follows:
• 1. A master mix of EV-amyloid peptide in binding buffer was made as follows: 10650 μL 0.1% bovine serum albumin in phosphate buffered saline, 1200 μL 10× Protease Inhibitor cocktail (Roche, cat # 1836153), 30 μL EV amyloid peptide (4 μM in DMSO). • 2. […] Interaction between EV amyloid and antibody was assessed by quantification of the EV amyloid peptide by antibody sandwich assay using ALPHA detection. • 7. […]
The solutions were incubated at room temperature for 1 hour prior to addition to the EV-amyloid binding reaction. • 8. […] The plate was incubated overnight, in the dark, at room temperature, and antibody binding to EV-amyloid was detected via ALPHA Quest.

[2] = biological target: APP (Homo sapiens, UniProt P05067); assay: Biacore S51 binding to immobilized biotinylated APP; conditions: Biacore S51, SA-coated sensor chip
Protocol: (§1) The compounds of formula (I) are believed to inhibit APP cleavage function by binding APP. The binding of the compound of Example 1 to APP was assayed by BiacoreS51. Biotinylated APP and biotinylated sAPPβ were immobilized to a SA-coated sensor chip. A titration of Example 1 was injected and the binding response for each concentration of Example 1 was obtained for both proteins. FIG. 5 is a graph of response units for […] (◯) or the BACE 1 inhibitor Statine-Val ( ? ) binding to APP.

[3] = system: H4 neuroglioma cells expressing CTF99; assay: Secreted Aβ42 and Aβ40 in H4 neuroglioma cells expressing CTF99 (ECL); type: cell-based; conditions: 20 h treatment, conditioned media, FIG. 4
Protocol: The compound of Example 1 was titrated into H4 neuroglioma cells expressing CTF99. The cells were treated with the compound of Example 1 for 20 h and conditioned media was harvested.

[4] = biological target: T2, sAPPβ (Homo sapiens, UniProt P05067); assay: Biacore S51 binding to immobilized biotinylated sAPPβ; conditions: Biacore S51, SA-coated sensor chip
T2 construct: Biotinylated APP and biotinylated sAPPβ were immobilized to a SA-coated sensor chip
Protocol: as §1

[5] = biological target: BACE 1 (Homo sapiens, UniProt P05067); assay: Western blot of BACE 1 cleavage of APP variant; type: biochemical; conditions: bacterially expressed APP variant, BACE 1 protein, 1 h at 37° C.; read-out: IC50, inhibition of BACE cleavage of APP (densitometric quantitation of Western blot)
Protocol: A bacterially expressed APP variant containing an enhanced BACE cleavage sequence was incubated with Example 2 and BACE 1 protein for 1 h at 37° C. to conduct a Western blot analysis. The reaction was run on a gel and blotted. The BACE-specific cleavage product was detected using an antibody specifically recognizing the N-terminal product arising after BACE cleavage.
FIG. 2(A) depicts the Western blot.

[6] = system: BACE2; assay: BACE2 cleavage of EV amyloid / Aβ (mass spectrometric analysis); type: biochemical; conditions: 100 μM; result in words
Protocol: The effect of inhibition of BACE 2 cleavage of EV amyloid was assayed using a protocol described in Shi et al, 2003, J. Biol. Chem., 278:21286-21294. The results of assaying Examples 1-4 at 100 μM are shown below: […]

T1 sequence (P05067 672-711 D672E/A673V): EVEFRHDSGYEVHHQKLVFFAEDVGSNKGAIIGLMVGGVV
Chain of APP (P05067 18-770): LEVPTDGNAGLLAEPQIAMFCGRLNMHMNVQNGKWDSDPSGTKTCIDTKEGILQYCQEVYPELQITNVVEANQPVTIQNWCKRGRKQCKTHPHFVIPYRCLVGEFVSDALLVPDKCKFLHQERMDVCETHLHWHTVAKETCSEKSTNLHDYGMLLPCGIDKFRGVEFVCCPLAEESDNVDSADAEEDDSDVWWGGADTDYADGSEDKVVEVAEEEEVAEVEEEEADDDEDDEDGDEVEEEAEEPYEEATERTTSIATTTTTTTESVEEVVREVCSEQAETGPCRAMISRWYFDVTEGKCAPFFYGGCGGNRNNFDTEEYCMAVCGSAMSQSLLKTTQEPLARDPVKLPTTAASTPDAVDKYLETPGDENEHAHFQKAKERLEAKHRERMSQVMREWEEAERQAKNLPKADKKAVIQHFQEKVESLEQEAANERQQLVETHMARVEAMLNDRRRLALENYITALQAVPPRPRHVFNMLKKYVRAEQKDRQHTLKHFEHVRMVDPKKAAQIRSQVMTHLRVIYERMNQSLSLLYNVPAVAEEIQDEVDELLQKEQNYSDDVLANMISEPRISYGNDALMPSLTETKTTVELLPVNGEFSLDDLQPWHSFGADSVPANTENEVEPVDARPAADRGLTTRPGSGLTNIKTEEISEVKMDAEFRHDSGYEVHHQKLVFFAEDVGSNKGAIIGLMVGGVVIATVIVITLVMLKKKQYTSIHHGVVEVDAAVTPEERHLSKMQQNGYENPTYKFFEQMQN
T2 sequence (P05067 18-671 limits assumed): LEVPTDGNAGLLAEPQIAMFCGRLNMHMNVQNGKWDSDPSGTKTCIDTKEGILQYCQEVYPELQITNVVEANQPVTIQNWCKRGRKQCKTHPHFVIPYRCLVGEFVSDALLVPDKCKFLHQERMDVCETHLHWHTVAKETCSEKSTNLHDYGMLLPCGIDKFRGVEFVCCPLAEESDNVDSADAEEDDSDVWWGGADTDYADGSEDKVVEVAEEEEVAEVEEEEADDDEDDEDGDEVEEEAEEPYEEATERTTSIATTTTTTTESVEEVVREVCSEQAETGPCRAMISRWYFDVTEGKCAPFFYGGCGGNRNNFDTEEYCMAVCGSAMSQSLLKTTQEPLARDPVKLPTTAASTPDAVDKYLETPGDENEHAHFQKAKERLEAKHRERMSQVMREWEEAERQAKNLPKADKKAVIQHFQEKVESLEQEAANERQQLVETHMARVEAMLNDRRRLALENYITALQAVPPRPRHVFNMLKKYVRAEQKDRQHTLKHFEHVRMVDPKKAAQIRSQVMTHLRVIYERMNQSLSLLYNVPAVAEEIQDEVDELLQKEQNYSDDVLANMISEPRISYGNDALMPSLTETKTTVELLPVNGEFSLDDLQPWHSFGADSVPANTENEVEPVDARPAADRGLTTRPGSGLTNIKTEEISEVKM
Chain of BACE 1 (P05067 whole entry K670N/M671F/D672E/A673V, form open): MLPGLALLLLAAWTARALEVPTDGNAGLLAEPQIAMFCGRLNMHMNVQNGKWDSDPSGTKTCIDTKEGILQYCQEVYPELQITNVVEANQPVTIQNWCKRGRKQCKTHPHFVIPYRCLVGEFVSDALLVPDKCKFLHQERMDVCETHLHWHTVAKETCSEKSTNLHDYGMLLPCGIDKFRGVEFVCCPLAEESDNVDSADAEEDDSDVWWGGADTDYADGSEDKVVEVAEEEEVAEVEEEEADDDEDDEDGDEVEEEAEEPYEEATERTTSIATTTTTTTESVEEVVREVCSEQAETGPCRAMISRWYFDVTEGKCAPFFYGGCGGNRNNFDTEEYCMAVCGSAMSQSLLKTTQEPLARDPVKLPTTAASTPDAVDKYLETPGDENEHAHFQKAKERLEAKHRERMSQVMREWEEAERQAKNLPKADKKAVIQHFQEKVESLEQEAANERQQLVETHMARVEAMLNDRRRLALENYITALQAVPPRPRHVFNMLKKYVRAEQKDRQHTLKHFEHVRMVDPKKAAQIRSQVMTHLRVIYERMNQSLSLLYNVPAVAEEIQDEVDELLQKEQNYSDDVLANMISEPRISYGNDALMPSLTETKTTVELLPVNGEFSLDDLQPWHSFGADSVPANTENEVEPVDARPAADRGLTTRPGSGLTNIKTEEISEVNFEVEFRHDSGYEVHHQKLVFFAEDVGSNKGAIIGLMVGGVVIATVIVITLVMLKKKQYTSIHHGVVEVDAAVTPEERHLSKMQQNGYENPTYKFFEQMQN

| Structure (SMILES) | inhibition of antibody binding to EV amyloid [1] | binding to APP [2] | production of Aβ42 relative to Aβ40 [3] | binding to sAPPβ [4] | IC50 [5] [µM] | effect on BACE2 cleavage at positions 19 and 20 [6] |
| --- | --- | --- | --- | --- | --- | --- |
| O=C(O)COc1cc2c(cc1CCCOc1ccccc1)OC(CCc1ccccc1)C2 (stereo not shown) [Example 1, {[6-(3-phenoxypropyl)-2-(2-phenylethyl)-2,3-dihydro-1-benzofuran-5-yl]oxy} acetic acid] | approximately 40% | binds APP | decrease the production of Aβ42 relative to the production of Aβ40 | does not bind sAPPβ | – | – |
| O=C(O)COc1cc2c(cc1CCCOc1ccccc1Cl)OC(CCc1ccccc1)C2 (stereo not shown) [Example 2, {[6-[3-(2chlorophenoxy)propyl)-2-(2-phenylethyl)-2,3-dihydro-1-benzofuran-5-yl]oxy} acetic] | approximately 40% | – | – | – | 11 | substantially enhanced cleavage at positions 19 and 20 |

Reference: US20070202547A1, “Methods For Detecting Substances Which Bind To The Amyloid Precursor Protein Or Beta Amyloid Fragments, And Binding Compounds” (priority 2004, published 2007)
